Read-outs that look alike come from different tables or passages of the source.
Legend:
Type in all cases: cell-based
human TLR9 = target: T1, human TLR9 (Homo sapiens, UniProt Q9NR96); assay: TLR9 inhibition reporter assay (HEK-Blue cells, secreted embryonic alkaline phosphatase reporter)
T1 construct: host or cells: HEK-Blue cells (HEK293-derived reporter line)
T1 sequence (Q9NR96 26-1032): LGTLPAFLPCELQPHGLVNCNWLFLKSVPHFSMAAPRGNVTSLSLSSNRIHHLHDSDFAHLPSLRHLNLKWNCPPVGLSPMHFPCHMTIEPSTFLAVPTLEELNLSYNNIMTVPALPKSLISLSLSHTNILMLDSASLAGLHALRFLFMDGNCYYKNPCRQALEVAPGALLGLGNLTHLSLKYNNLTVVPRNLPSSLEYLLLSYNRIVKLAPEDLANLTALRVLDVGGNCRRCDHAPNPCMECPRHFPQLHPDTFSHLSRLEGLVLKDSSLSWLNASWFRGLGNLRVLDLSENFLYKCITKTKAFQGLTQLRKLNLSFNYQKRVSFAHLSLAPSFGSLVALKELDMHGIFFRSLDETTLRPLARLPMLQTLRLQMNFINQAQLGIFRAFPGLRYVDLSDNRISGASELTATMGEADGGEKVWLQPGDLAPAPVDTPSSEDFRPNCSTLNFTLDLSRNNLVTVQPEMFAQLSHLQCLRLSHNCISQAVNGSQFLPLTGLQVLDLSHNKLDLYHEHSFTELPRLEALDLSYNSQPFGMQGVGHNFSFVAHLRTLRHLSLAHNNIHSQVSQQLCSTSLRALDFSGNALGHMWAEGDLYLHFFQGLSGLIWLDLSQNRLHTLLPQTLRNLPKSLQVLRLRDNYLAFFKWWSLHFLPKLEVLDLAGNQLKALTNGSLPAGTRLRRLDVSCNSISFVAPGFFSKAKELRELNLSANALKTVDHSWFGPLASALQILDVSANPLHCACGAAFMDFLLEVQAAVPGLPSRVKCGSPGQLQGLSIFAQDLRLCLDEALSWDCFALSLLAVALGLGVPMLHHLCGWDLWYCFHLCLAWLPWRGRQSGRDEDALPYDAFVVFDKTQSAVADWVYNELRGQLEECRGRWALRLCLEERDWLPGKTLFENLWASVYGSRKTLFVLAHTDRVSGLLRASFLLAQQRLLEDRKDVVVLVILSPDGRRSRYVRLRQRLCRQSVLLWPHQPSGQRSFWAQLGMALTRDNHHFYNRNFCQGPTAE
In short: (§1)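 Agonist-driven SEAP output was measured in HEK-Blue reporter cells carrying human TLR7 (gardiquimod 7.5 μM), TLR8 (R848 15.9 μM) or TLR9 (ODN2006 5 nM). Compounds at 0.05 nM–50 μM final were added 30 min before stimulation at room temperature. After 22 h at 37 °C, percent inhibition was taken against agonist/DMSO wells and a reference inhibitor.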

human TLR7 = target: T2, human TLR7 (Homo sapiens, UniProt Q9NYK1); assay: TLR7 inhibition reporter assay (HEK-Blue cells, secreted embryonic alkaline phosphatase reporter); conditions: HEK-Blue cells overexpressing human TLR7, stimulated with gardiquimod 7.5 μM; read-out: TLR 7 IC50
T2 construct: host or cells: HEK-Blue cells (HEK293-derived reporter line)
T2 sequence (Q9NYK1 27-1049): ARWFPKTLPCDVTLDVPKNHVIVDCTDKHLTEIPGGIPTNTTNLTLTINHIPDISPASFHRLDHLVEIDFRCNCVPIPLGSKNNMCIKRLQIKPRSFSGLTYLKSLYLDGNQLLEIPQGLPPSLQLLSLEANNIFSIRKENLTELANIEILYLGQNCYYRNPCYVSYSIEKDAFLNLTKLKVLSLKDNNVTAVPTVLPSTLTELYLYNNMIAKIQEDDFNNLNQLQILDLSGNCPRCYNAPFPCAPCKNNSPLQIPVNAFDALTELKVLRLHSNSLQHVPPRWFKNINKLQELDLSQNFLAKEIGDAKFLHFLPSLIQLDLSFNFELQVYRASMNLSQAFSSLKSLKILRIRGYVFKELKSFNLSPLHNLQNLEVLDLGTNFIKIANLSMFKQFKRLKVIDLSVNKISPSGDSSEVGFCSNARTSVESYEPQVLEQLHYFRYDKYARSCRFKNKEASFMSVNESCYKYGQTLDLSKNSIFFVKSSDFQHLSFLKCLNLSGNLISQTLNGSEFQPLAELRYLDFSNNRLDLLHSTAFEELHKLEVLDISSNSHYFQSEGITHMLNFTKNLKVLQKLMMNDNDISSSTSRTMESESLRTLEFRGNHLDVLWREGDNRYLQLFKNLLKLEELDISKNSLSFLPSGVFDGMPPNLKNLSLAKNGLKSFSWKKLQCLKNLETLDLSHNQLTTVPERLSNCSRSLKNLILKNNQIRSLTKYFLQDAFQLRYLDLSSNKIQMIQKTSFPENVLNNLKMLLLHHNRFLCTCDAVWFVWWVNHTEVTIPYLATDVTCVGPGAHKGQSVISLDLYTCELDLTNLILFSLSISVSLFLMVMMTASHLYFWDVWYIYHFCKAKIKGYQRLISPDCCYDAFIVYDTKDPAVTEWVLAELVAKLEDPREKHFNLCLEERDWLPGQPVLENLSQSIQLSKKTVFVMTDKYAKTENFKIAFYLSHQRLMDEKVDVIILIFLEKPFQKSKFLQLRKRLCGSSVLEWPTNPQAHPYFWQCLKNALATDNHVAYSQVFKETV
In short: as §1

human TLR8 = target: T3, human TLR8 (Homo sapiens, UniProt Q9NR97); assay: TLR8 inhibition reporter assay (HEK-Blue cells, secreted embryonic alkaline phosphatase reporter); conditions: HEK-Blue cells overexpressing human TLR8, stimulated with R848 15.9 μM; read-out: TLR 8 IC50
T3 construct: host or cells: HEK-Blue cells (HEK293-derived reporter line)
T3 sequence (Q9NR97 27-1041): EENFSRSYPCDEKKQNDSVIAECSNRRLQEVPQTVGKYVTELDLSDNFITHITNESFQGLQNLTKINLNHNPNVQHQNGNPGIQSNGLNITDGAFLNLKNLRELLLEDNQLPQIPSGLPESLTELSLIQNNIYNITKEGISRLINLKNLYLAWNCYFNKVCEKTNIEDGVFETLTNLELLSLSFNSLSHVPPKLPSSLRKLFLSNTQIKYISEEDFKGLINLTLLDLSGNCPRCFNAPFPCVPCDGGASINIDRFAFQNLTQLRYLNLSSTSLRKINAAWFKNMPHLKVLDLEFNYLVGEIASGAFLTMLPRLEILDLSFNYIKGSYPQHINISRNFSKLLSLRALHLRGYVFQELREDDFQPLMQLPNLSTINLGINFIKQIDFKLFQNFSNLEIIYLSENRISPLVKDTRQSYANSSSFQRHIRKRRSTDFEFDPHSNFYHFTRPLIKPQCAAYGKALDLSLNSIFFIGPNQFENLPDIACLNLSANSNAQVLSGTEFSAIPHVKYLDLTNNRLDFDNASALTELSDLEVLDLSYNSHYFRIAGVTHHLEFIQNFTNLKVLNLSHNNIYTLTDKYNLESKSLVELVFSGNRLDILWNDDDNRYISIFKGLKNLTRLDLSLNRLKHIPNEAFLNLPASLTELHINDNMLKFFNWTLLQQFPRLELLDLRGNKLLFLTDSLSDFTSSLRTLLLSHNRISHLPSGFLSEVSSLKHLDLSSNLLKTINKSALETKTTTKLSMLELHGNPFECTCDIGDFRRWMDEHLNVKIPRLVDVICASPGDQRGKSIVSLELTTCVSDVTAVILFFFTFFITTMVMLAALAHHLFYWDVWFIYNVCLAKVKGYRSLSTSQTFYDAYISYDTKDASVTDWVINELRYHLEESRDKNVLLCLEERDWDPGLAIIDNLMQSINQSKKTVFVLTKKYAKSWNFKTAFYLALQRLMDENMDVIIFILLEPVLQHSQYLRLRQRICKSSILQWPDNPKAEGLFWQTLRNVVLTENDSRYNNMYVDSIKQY
In short: as §1

[1] = HEK-Blue cells overexpressing human TLR9, stimulated with ODN2006 5 nM, read-out: TLR 9 IC50
[2] = HEK-Blue human TLR9 reporter cells
[3] = HEK-Blue cells overexpressing human TLR9, stimulated with ODN2006 5 nM, 22 hour incubation, reporter readout

| Structure (SMILES) | IC50 (human TLR9; [1]) [nM] | IC50 (human TLR9; [2]) [nM] | IC50 (human TLR7) [nM] | IC50 (human TLR8) [nM] | IC50 (human TLR9) [nM] | IC50 (human TLR9; [3]) [nM] |
| --- | --- | --- | --- | --- | --- | --- |
| COc1cc(-c2nc3c(C)cc(C4CCN(C5CC6CCC(C5)N6C5CC5)CC4)cc3[nH]2)cn2ncnc12 (centres unmarked) [Example 360, 6-(6-(1-(8-cyclopropyl-8-azabicyclo[3.2.1]octan-3-yl)piperidin-4-yl)-4-methyl-1H-benzo[d]imidazol-2-yl)-8-methoxy-[1,2,4]triazolo[1,5-a]pyridine] | 9.7 | 9.7 | 700 | 26300 | – | – |
| Cn1c(-c2ccc(S(C)(=O)=O)cc2)nc2cc(C3CCN(C4CCN(C5COC5)CC4)CC3)cc(F)c21 [Example 206, 7-fluoro-1-methyl-2-(4-(methylsulfonyl)phenyl)-5-(1′-(oxetan-3-yl)-[1,4′-bipiperidin]-4-yl)-1H-benzo[d]imidazole] | 840 | – | > 50000 | > 50000 | 840 | – |
| CC(C)CN1C2CCC1CC(N1CCC(c3cc4c(cc3F)nc(-c3ccc(S(C)(=O)=O)cc3)n4C)CC1)C2 (single isomer, unassigned) [Example 228, 5-fluoro-6-(1-(8-isobutyl-8-azabicyclo[3.2.1]octan-3-yl)piperidin-4-yl)-1-methyl-2-(4-(methylsulfonyl)phenyl)-1H-benzo[d]imidazole] | 69 | – | 1400 | 16700 | 69 | – |
| COc1ccc(-c2nc3ccc(C4CCN(C5CCN(CC(C)C)CC5)CC4)cc3n2C)cc1OC [Example 26, 2-(3,4-dimethoxyphenyl)-6-(1′-isobutyl-[1,4′-bipiperidin]-4-yl)-1-methyl-1H-benzo[d]imidazole] | 132 | – | 32000 | > 50000 | – | 130 |
| Cn1c(-c2ccc(S(C)(=O)=O)cc2)nc2cc(F)c(C3CCN(C4CCN(C5CCOCC5)CC4)CC3)cc21 [Example 226, 5-fluoro-1-methyl-2-(4-(methylsulfonyl)phenyl)-6-(1′-(tetrahydro-2H-pyran-4-yl)-[1,4′-bipiperidin]-4-yl)-1H-benzo[d]imidazole] | 898 | – | > 50000 | > 50000 | 900 | – |
| Cc1cc(C2CCN(C3CCN(CC4CC4)CC3)CC2)cc2c1nc(-c1ccc(S(C)(=O)=O)c(F)c1)n2C [Example 338, 6-(1′-(cyclopropylmethyl)-[1,4′-bipiperidin]-4-yl)-2-(3-fluoro-4-(methylsulfonyl)phenyl)-1,4-dimethyl-1H-benzo[d]imidazole] | 258 | 260 | 3800 | > 50000 | – | – |
| COc1ccc(-c2nc3cc(C4CCN(C5CCN(CC(C)C)CC5)CC4)ccc3n2CC(F)F)cc1OC [Example 38, 1-(2,2-difluoroethyl)-2-(3,4-dimethoxyphenyl)-5-(1′-isobutyl-[1,4′-bipiperidin]-4-yl)-1H-benzo[d]imidazole] | 208 | – | 3400 | > 50000 | – | 210 |
| Cc1cc(C2CCN(C3CC4CCC(C3)N4CC3CC3)CC2)cc2[nH]c(-c3ccc(S(C)(=O)=O)cc3)nc12 (centres unmarked) [Example 335, 6-(1-(8-(cyclopropylmethyl)-8-azabicyclo[3.2.1]octan-3-yl)piperidin-4-yl)-4-methyl-2-(4-(methylsulfonyl)phenyl)-1H-benzo[d]imidazole] | 130 | 130 | > 50000 | > 50000 | – | – |
| COc1ccc(-c2nc3c(C)cc(C4CCN(C5CCNCC5)CC4)cc3[nH]2)cc1OC [Example 13, 6-([1,4′-bipiperidin]-4-yl)-2-(3,4-dimethoxyphenyl)-4-methyl-1H-benzo[d]imidazole tris(2,2,2-trifluoroacetate)] | 617 | – | > 50000 | > 50000 | – | 620 |
| CC(C)CN1CCCC(N2CCC(c3ccc4nc(-c5ccc(S(C)(=O)=O)cc5)n(C)c4c3F)CC2)CC1 (centres unmarked) [Example 310, 7-fluoro-6-(1-(1-isobutylazepan-4-yl)piperidin-4-yl)-1-methyl-2-(4-(methylsulfonyl)phenyl)-1H-benzo[d]imidazole] | 46 | 47 | > 50000 | > 50000 | – | – |
| COc1ccc(-c2nc3ccc(C4CCN(C5CCN(C(C)C)CC5)CC4)cc3n2C)cc1OC [Example 1, 2-(3,4-dimethoxyphenyl)-6-(1′-isopropyl-[1,4′-bipiperidin]-4-yl)-1-methyl-1H-benzo[d]imidazole] | – | – | 5900 | 1100 | – | 56 |
| CC(C)CN1C2CCC1CC(N1CCC(c3ccc4nc(-c5ccc(S(C)(=O)=O)cc5)[nH]c4c3F)CC1)C2 (single isomer, unassigned) [Example 220, 7-fluoro-6-(1-(8-isobutyl-8-azabicyclo[3.2.1]octan-3-yl)piperidin-4-yl)-2-(4-(methylsulfonyl)phenyl)-1H-benzo[d]imidazole] | 683 | – | 41900 | > 50000 | 680 | – |

Reference: patent US12492188B2, “1H-benzo[D]imidazole derivatives as TLR9 inhibitors for the treatment of fibrosis” (BRISTOL-MYERS SQUIBB COMPANY, priority 2020, dated 2025)
